# Columns and labels:
# T memory stem cells = conditions: previously reported; by altering acetyl-Coenzyme A levels; cited from earlier work
# PMEL CD8^+ T cells = experiment: CyTOF phenotyping of ex vivo expanded PMEL T cells stimulated with or without 2HC; assay type: cell-based, murine; conditions: 5 mM 2HC during ex vivo expansion, vs untreated cells (effector and exhausted phenotype)
# Source text: This Example describes experiments performed to apply the CyTOF technology to a comprehensively capture the phenotypic space of T cells. As described below, an in-depth understanding of the phenotype of differentially activated tumor-specific T cells can be achieved by using a CyTOF technique. […] Also used in these experiments was a palladium-based mass tag cell barcoding technique that enabled simultaneous analysis and pooling of 20 samples at a time, which allowed efficient multiplexing and reducing batch effects.
# Generally, cells were suspended in supplemented media: complete RPMI 1640 media (with glutamine) with 1× non-essential amino acids, 1 mM sodium pyruvate, 0.4× vitamin solution, 92 µM 2-mercaptoethanol, 10 µM ciprofloxacin, 10% fetal bovine serum (FBS), and 50 IU/ml IL-2. At Day 0, splenocytes were used at a concentration of 2×10^6/ml, 100 µL /well in 96 well plate u-bottom. The cultures were started with 100×10^6 cells per condition, in 50 mL T cell media containing 60 IU/mL IL-2, 10 µg/mL GP100, and 5 mM 2HC (85 mg). At Day 3, the cell culture was fed with 50 µL media containing 120 IU/mL IL-2 and 5 mM 2HC. At Day 4, the cell culture was fed with 80 µL media containing 120 IU/mL IL-2 and 5 mM 2HC. […]
# On Day 9, cells were counted and harvested into FACS tubes for CyTOF analysis using a panel of CYTOF biomarkers (see, e.g., FIG. 1 and Table 1). […]
compound,measurement,setting,value
"O=C([O-])CC(O)(C(=O)[O-])C(O)C(=O)[O-].[K+].[K+].[K+] (centres unmarked) [2HC, tripotassium 2-hydroxycitrate]",generation of T memory stem cells,T memory stem cells,increases the generation of T memory stem cells
same,shift of T cell phenotype on incubation with inhibitor of acetyl-CoA production,PMEL CD8^+ T cells,drastically shifted T cells towards a more memory like phenotype

# Source: patent US20230285557A1, “MULTI-PARALLEL ANALYSIS OF T-CELL THERAPIES” (The Board of Trustees of the Leland Stanford Junior …, priority 2020, published 2023)
